Earlier results on 3 compounds are cited in patent US20110144207A1, “ARYL ALKYL CARBOXYLIC ACID SALTS, PROCESS FOR PREPARATION AND DOSAGE FORMS” (SHASUN CHEMICALS AND DRUGS LIMITED, priority 2008, published 2011).

Where a name gives a salt, the structure may show the parent alone. Read-outs that look alike come from different tables or passages of the source.

For data set [1] the following is noted: as described in EP application 1149828.
For data set [2] the following is noted: compared with conventional ibuprofen.

Consider `O=C(O)Cc1ccccc1Nc1c(Cl)cccc1Cl` [diclofenac sodium salt hemihydrate], for which the hygroscopic property result in data set [1] (sodium salt hemihydrate) is given as “no hygroscopic property”.

Regarding `O=C(O)Cc1ccccc1Nc1c(Cl)cccc1Cl` [diclofenac sodium salt], the hygroscopic property result in data set [1] (sodium salt) was “hygroscopic”.

`CC(C)Cc1ccc(C(C)C(=O)O)cc1.O.O.[Na]` (stereo not shown) [ibuprofen sodium dihydrate, Ibuprofen Sodium Dihydrate]: in data set [2], the “Cmax (peak concentration)” value is “significantly higher” and the “tmax (time to peak concentration)” value was “earlier”.
